From the kinase profiling compilation of Christmann-Franck et al. (2016)

Tests used:
Assay in all cases: radiometric filter-binding kinase assay, Kinase HotSpot
Settings in all cases: compound 0.5 µM; ATP 10 µM
[1] = molecular target: KIT (human) (UniProt P10721)
[2] = molecular target: CDK3 CCNE1 (human) (UniProt Q00526+P24864)
[3] = molecular target: SRPK3 (human) (UniProt Q9UPE1)
[4] = molecular target: PIM3 (human) (UniProt Q86V86)
[5] = molecular target: GSK3A (human) (UniProt P49840)
[6] = molecular target: DAPK1 (human) (UniProt P53355)
[7] = molecular target: FLT3 (human) (UniProt P36888)
[8] = molecular target: JAK2 JH1 JH2 (human) (UniProt O60674)
[9] = molecular target: PNCK (human) (UniProt Q6P2M8)
[10] = system: SGK1 (human), O00141 [S422D]
[11] = molecular target: PIM1 (human) (UniProt P11309)
[12] = molecular target: PBK (human) (UniProt Q96KB5)
[13] = molecular target: SGK2 (human) (UniProt Q9HBY8)
[14] = molecular target: MAP3K10 (human) (UniProt Q02779)
[15] = molecular target: DCLK2 (human) (UniProt Q8N568)
[16] = molecular target: PRKCG (human) (UniProt P05129)
[17] = molecular target: FES (human) (UniProt P07332)
[18] = molecular target: DMPK (human) (UniProt Q09013)
[19] = molecular target: CSNK1G2 (human) (UniProt P78368)
[20] = molecular target: WNK2 (human) (UniProt Q9Y3S1)
[21] = molecular target: MAPK12 (human) (UniProt P53778)
[22] = molecular target: MAPKAPK3 (human) (UniProt Q16644)
[23] = molecular target: RIPK2 (human) (UniProt O43353)
[24] = molecular target: STK3 (human) (UniProt Q13188)
[25] = molecular target: PLK2 (human) (UniProt Q9NYY3)
[26] = molecular target: OXSR1 (human) (UniProt O95747)
[27] = molecular target: MARK2 (human) (UniProt Q7KZI7)
[28] = molecular target: AKT1 (human) (UniProt P31749)
[29] = molecular target: CDC42BPB (human) (UniProt Q9Y5S2)
[30] = molecular target: WEE1 (human) (UniProt P30291)
[31] = molecular target: KDR (human) (UniProt P35968)
[32] = molecular target: CAMK2G (human) (UniProt Q13555)
[33] = molecular target: PDGFRA (human) (UniProt P16234)
[34] = molecular target: PIM2 (human) (UniProt Q9P1W9)
[35] = molecular target: BLK (human) (UniProt P51451)
[36] = molecular target: MARK4 (human) (UniProt Q96L34)
[37] = molecular target: CAMK2A (human) (UniProt Q9UQM7)
[38] = molecular target: TYK2 JH1 catalytic (human) (UniProt P29597)
[39] = molecular target: PKN2 (human) (UniProt Q16513)
[40] = molecular target: LTK (human) (UniProt P29376)
[41] = molecular target: HIPK3 (human) (UniProt Q9H422)
[42] = molecular target: PTK2 (human) (UniProt Q05397)

PNCK (human), sequence (Q6P2M8 whole entry, looked up): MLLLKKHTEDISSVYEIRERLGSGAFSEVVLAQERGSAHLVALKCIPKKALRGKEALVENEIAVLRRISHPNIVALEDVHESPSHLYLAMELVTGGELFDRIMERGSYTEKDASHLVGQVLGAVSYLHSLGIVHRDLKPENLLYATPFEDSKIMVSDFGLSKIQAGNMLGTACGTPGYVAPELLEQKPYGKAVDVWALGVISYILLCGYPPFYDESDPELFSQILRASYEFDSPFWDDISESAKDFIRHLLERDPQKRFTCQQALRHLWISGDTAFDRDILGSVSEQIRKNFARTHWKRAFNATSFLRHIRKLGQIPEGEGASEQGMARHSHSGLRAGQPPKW
CAMK2A (human), sequence (Q9UQM7 whole entry, looked up): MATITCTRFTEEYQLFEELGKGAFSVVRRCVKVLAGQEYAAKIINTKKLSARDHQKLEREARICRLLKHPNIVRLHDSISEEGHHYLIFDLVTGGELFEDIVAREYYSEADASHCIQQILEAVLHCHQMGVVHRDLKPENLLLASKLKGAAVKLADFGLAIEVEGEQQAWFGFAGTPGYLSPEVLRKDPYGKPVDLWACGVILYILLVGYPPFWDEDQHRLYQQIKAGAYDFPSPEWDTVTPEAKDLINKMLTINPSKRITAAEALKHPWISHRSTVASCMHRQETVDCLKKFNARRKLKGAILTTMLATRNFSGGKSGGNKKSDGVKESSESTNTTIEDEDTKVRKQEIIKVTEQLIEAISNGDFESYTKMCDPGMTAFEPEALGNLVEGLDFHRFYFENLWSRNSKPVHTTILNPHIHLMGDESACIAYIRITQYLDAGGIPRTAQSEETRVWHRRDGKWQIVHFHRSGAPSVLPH
CAMK2G (human), sequence (Q13555 whole entry, looked up): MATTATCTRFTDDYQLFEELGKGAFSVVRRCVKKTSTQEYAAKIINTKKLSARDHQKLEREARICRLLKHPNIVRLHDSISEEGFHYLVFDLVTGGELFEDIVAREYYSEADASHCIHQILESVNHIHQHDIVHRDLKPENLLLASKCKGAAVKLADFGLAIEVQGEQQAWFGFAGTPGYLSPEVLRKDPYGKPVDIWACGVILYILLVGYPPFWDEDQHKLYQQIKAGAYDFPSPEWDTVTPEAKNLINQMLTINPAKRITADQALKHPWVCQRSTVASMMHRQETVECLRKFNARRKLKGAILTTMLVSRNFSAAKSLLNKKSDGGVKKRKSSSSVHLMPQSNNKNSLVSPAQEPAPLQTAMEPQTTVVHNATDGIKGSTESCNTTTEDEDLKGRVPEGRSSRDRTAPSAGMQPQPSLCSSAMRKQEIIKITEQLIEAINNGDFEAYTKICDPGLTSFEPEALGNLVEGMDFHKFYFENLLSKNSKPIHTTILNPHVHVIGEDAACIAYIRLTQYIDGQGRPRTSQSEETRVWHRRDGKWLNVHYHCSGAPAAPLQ
CDK3 CCNE1 (human), sequence (P24864 whole entry, looked up): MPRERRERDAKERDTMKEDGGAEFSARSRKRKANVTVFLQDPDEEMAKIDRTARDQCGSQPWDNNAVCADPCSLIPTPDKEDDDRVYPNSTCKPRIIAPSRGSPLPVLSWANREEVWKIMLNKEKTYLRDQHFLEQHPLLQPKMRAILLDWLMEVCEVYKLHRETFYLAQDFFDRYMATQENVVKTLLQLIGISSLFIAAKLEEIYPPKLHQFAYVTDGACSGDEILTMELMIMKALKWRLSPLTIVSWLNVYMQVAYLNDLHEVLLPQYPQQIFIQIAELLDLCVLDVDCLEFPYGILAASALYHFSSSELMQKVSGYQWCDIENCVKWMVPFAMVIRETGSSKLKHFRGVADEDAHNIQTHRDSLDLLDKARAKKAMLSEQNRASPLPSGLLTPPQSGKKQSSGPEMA
CDK3 CCNE1 (human), sequence (Q00526 whole entry, looked up): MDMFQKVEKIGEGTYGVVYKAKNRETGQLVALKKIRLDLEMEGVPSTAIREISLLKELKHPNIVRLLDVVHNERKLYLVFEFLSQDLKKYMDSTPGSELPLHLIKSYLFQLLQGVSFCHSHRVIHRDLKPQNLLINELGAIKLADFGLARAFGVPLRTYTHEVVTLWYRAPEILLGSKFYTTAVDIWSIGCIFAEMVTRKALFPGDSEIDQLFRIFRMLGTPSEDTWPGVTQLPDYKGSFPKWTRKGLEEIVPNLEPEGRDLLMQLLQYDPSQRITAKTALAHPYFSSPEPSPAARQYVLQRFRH
MARK2 (human), sequence (Q7KZI7 whole entry, looked up): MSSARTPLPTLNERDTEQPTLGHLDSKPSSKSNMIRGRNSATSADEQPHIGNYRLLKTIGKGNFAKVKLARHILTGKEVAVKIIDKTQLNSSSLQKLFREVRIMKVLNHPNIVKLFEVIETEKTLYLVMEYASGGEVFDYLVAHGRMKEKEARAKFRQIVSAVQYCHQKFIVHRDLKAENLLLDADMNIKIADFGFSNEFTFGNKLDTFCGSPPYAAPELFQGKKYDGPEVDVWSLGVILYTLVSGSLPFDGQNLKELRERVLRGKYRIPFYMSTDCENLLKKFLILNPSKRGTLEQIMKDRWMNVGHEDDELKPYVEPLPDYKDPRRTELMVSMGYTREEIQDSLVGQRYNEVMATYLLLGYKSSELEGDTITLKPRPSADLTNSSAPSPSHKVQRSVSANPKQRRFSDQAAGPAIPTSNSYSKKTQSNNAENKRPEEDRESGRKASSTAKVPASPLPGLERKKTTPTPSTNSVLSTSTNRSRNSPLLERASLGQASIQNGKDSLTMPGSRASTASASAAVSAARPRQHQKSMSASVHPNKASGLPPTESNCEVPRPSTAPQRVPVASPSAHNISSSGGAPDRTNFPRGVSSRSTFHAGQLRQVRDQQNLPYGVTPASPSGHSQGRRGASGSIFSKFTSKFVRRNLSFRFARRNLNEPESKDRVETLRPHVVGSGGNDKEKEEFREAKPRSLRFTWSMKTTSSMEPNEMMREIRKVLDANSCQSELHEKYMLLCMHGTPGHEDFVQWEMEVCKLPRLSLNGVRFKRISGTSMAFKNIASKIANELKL
STK3 (human), sequence (Q13188 whole entry, looked up): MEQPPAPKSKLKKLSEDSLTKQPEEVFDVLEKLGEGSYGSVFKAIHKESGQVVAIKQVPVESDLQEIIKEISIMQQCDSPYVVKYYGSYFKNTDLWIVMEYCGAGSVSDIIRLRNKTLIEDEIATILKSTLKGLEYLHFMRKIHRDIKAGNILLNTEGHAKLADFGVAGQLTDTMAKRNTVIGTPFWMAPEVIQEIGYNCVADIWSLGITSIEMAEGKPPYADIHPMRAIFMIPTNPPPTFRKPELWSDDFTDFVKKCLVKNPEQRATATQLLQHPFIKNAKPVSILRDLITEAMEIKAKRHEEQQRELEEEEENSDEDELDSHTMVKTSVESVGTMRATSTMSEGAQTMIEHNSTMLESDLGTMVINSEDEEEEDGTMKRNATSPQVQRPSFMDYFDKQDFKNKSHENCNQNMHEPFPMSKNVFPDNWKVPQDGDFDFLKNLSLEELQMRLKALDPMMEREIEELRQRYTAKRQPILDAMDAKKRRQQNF
WEE1 (human), sequence (P30291 whole entry, looked up): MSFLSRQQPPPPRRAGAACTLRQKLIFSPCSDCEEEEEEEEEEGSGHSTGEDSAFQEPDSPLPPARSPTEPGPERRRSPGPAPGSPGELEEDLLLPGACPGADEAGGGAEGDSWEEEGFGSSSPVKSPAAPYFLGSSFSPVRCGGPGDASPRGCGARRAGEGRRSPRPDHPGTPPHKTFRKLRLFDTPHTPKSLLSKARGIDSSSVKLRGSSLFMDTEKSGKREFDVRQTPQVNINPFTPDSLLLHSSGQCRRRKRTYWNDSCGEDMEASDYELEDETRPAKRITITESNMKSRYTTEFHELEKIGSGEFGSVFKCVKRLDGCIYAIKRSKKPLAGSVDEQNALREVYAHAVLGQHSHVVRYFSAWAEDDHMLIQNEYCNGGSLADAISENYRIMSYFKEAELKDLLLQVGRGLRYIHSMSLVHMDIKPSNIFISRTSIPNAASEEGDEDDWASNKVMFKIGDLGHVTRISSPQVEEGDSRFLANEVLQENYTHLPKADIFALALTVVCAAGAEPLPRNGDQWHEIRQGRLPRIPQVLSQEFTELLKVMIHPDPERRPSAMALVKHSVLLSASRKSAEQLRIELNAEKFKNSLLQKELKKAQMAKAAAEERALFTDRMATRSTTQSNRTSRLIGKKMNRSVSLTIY
FLT3 (human), sequence (P36888 whole entry, looked up): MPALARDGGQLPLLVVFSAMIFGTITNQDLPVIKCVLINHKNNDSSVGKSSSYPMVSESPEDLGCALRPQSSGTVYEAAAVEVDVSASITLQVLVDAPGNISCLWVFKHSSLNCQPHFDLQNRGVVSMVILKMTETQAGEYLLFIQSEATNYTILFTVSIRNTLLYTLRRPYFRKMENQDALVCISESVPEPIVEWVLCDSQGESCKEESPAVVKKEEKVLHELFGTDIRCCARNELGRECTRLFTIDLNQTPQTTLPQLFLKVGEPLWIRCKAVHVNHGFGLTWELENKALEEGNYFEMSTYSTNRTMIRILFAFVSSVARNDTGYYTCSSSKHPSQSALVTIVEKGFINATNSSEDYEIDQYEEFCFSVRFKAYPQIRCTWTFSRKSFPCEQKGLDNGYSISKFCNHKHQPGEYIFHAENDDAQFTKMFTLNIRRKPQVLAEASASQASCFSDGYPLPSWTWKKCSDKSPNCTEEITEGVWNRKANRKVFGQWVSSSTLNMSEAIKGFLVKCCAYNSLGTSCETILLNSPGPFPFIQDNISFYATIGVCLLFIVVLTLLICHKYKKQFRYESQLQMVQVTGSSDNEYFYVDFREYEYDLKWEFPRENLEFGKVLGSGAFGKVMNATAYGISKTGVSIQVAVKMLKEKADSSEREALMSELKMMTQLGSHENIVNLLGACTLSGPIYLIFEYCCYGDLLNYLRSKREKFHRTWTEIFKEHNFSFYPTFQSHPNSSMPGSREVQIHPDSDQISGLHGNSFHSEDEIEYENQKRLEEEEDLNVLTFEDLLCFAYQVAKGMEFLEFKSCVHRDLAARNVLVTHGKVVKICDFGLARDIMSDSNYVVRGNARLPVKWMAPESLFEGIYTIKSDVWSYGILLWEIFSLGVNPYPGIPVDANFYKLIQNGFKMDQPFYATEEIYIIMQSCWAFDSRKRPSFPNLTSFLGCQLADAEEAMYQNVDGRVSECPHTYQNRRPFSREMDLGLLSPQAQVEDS

## N/C(=N\N=C/c1ccc(-c2cccc([N+](=O)[O-])c2)o1)N[N+](=O)[O-]
[1]
  residual activity: 96.4%
[2]
  residual activity: 85%
[3]
  residual activity: 100%
[4]
  residual activity: 114%
[5]
  residual activity: 108%
[6]
  residual activity: 97.8%
[7]
  residual activity: 99.3%
[8]
  residual activity: 98.8%
[9]
  residual activity: 100%
[10]
  residual activity: 92.4%
[11]
  residual activity: 92.9%
[12]
  residual activity: 111%
[13]
  residual activity: 101%
[14]
  residual activity: 101%
[15]
  residual activity: 101%
[16]
  residual activity: 96.4%
[17]
  residual activity: 101%
[18]
  residual activity: 102%
[19]
  residual activity: 101%
[20]
  residual activity: 106%
[21]
  residual activity: 93.4%
[22]
  residual activity: 95.4%
[23]
  residual activity: 106%
[24]
  residual activity: 100%
[25]
  residual activity: 107%
[26]
  residual activity: 102%
[27]
  residual activity: 108%
[28]
  residual activity: 99.7%
[29]
  residual activity: 95.4%
[30]
  residual activity: 100%
[31]
  residual activity: 96.7%
[32]
  residual activity: 82.1%
[33]
  residual activity: 93.2%
[34]
  residual activity: 106%
[35]
  residual activity: 102%
[36]
  residual activity: 87.6%
[37]
  residual activity: 100%
[38]
  residual activity: 110%
[39]
  residual activity: 92.6%
[40]
  residual activity: 102%

## N#C/C(=C1/Nc2ccccc2S1)c1ccnc(NCCc2cccnc2)n1
[1]
  residual activity: 93.6%
[2]
  residual activity: 92.3%
[3]
  residual activity: 89.5%
[4]
  residual activity: 3.74%
[5]
  residual activity: 2.42%
[6]
  residual activity: 99.3%
[7]
  residual activity: 58.2%
[8]
  residual activity: 106%
[9]
  residual activity: 100%
[10]
  residual activity: 100%
[11]
  residual activity: 11.6%
[12]
  residual activity: 99.7%
[13]
  residual activity: 100%
[14]
  residual activity: 79.6%
[15]
  residual activity: 96%
[16]
  residual activity: 92.2%
[17]
  residual activity: 92.8%
[41]
  residual activity: 106%
[19]
  residual activity: 87%
[20]
  residual activity: 106%
[42]
  residual activity: 93%
[21]
  residual activity: 96.7%
[22]
  residual activity: 102%
[24]
  residual activity: 98.9%
[25]
  residual activity: 95.8%
[26]
  residual activity: 99%
[27]
  residual activity: 97.9%
[28]
  residual activity: 104%
[29]
  residual activity: 95.2%
[30]
  residual activity: 88.5%
[31]
  residual activity: 99.7%
[32]
  residual activity: 111%
[33]
  residual activity: 99%
[34]
  residual activity: 91.2%
[35]
  residual activity: 102%
[36]
  residual activity: 91.6%
[37]
  residual activity: 105%
[38]
  residual activity: 83.2%
[39]
  residual activity: 99.3%
[40]
  residual activity: 83.1%

## CCCCc1c(-c2ccc(O)cc2)[nH]c2nccnc12
[1]
  residual activity: 80.8%
[2]
  residual activity: 76.8%
[3]
  residual activity: 98.6%
[4]
  residual activity: 72.8%
[5]
  residual activity: 57.7%
[6]
  residual activity: 85.3%
[7]
  residual activity: 45.3%
[8]
  residual activity: 77.8%
[9]
  residual activity: 109%
[10]
  residual activity: 88.1%
[11]
  residual activity: 83.8%
[12]
  residual activity: 75.6%
[13]
  residual activity: 99.4%
[14]
  residual activity: 74.3%
[15]
  residual activity: 99.7%
[16]
  residual activity: 95.1%
[17]
  residual activity: 64.5%
[18]
  residual activity: 91.8%
[41]
  residual activity: 100%
[19]
  residual activity: 78.5%
[20]
  residual activity: 117%
[42]
  residual activity: 83.1%
[22]
  residual activity: 92.8%
[23]
  residual activity: 58.6%
[24]
  residual activity: 76.6%
[25]
  residual activity: 83.9%
[26]
  residual activity: 95.5%
[27]
  residual activity: 76.1%
[30]
  residual activity: 94.6%
[31]
  residual activity: 89.8%
[32]
  residual activity: 101%
[33]
  residual activity: 95.1%
[34]
  residual activity: 121%
[35]
  residual activity: 85%
[36]
  residual activity: 84.6%
[37]
  residual activity: 97.8%
[38]
  residual activity: 43.4%
[39]
  residual activity: 82.4%
[40]
  residual activity: 84.1%
